Assay results published in ChEMBL document CHEMBL1201862, “PubChem BioAssay data set” (2004).
Values belong to the molecule of their own block, whether it stands above or below them. Active and inactive are the calls of the source.

Tests used:
Assay type in all cases: functional
[1] = target: Benomyl/methotrexate resistance protein (Candida albicans, UniProt P28873); assay: CaMdr1 efflux pump inhibitor potency, dose response, singleplex, Cherry Pick1 hits (AID 588608)
[2] = target: Multidrug resistance protein CDR1 (Candida albicans, UniProt P43071); assay: CaCDR1 efflux pump inhibitors in yeast, dose response, S. cerevisiae AD1-8u, singleplex, Cherry Pick1 hits (AID 588606)
Multidrug resistance protein CDR1, sequence (P43071 whole entry, looked up): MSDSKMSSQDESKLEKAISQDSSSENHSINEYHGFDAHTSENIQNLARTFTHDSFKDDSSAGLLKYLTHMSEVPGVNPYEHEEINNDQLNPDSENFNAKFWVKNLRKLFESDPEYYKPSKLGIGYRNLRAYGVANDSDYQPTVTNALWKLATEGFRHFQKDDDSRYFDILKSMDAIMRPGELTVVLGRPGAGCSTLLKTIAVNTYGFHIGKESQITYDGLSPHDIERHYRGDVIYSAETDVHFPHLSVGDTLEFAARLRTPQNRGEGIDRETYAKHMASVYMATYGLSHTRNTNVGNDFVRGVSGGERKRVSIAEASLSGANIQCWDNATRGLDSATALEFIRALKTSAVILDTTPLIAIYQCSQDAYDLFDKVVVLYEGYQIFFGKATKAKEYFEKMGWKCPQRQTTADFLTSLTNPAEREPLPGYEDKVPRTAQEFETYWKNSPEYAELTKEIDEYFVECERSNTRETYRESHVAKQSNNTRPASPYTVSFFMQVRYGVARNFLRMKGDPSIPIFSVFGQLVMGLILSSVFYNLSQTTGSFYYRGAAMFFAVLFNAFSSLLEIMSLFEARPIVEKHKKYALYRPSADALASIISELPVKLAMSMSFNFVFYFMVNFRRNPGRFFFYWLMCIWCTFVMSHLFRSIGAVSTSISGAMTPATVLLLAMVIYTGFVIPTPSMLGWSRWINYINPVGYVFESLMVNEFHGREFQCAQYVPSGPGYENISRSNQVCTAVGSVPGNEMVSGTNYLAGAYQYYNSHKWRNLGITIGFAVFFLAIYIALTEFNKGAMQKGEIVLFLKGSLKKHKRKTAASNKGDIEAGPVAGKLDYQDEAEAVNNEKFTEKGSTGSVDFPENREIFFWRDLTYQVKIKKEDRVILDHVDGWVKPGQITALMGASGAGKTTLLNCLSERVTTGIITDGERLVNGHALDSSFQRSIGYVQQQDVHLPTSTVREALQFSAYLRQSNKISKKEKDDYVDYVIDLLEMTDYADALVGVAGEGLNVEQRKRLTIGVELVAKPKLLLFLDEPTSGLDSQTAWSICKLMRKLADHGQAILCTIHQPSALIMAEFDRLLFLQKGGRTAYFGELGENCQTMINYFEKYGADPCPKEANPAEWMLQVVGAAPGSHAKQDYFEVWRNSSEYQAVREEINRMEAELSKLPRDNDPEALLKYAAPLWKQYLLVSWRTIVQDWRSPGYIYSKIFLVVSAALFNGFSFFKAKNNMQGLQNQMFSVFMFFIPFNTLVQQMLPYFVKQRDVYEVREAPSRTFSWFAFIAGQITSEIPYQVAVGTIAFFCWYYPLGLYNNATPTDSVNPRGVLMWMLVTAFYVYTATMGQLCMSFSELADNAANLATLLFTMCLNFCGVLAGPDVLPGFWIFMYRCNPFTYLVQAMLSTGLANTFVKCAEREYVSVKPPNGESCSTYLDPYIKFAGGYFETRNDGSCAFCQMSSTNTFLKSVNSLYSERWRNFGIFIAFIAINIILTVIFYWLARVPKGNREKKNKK

[3] = target: Multidrug resistance protein CDR2 (Candida albicans (strain SC5314 / ATCC MYA-2876) (Yeast), UniProt P78595); assay: CaCDR2 efflux pump inhibitors in yeast, dose response, S. cerevisiae AD1-8u, singleplex, Cherry Pick1 hits (AID 588604)
Multidrug resistance protein CDR2, sequence (P78595 whole entry): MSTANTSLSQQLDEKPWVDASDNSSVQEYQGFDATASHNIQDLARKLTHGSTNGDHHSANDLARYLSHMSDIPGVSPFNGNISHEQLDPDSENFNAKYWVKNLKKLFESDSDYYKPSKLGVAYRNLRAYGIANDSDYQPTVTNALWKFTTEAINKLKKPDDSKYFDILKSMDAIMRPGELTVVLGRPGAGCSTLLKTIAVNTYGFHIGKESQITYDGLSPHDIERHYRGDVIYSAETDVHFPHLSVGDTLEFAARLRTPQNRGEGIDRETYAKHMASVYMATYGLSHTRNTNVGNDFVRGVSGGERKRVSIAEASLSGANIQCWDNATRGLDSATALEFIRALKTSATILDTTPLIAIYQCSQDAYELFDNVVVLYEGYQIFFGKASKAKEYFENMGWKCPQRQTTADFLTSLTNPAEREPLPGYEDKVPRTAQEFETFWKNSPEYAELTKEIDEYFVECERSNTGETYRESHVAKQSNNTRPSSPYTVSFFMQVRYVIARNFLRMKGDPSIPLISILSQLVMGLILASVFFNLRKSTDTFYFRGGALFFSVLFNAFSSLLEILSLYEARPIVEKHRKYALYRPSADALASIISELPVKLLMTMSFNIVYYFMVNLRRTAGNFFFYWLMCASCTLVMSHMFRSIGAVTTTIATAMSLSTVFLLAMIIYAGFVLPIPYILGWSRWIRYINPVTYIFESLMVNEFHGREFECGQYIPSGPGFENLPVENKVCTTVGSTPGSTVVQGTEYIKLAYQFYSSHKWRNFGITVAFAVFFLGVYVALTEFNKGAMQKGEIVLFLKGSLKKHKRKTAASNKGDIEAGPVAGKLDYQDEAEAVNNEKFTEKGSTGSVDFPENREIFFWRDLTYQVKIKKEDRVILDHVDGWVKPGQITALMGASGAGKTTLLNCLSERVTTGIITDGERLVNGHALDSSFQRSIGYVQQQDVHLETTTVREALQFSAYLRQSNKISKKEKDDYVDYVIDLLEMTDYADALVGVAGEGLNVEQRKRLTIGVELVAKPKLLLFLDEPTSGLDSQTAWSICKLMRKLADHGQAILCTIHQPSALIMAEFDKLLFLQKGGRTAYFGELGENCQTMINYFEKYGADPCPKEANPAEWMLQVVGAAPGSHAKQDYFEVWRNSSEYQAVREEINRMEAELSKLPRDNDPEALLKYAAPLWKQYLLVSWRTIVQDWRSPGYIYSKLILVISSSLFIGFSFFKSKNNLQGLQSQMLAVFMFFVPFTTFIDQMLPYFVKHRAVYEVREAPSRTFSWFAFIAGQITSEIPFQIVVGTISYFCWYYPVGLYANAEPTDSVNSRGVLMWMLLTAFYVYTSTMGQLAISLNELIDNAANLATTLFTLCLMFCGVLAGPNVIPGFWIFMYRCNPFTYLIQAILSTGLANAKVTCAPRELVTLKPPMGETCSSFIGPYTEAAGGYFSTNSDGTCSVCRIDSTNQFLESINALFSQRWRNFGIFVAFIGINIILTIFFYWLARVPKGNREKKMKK

[4] = target: T1, Low molecular weight phosphotyrosine protein phosphatase (Homo sapiens, UniProt P24666); conditions: read-out: IC50_Mean
T1 sequence (P24666 whole entry): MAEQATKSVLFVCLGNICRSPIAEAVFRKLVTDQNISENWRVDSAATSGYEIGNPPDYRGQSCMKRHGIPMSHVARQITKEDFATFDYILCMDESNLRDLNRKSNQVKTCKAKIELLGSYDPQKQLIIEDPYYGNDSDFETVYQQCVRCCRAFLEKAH

[5] = target: T1, Low molecular weight phosphotyrosine protein phosphatase; conditions: read-out: IC50_Mean; remark: listed apart in the source
[6] = target: T2, Interleukin-8 (Homo sapiens, UniProt P10145); assay: Dose Response confirmation of uHTS small molecule hits for cystic fibrosis induced NFkb Inhibitors in a TNFa-induced IL8 counterscreen.; conditions: read-out: IC50_Mean
T2 sequence (P10145 whole entry): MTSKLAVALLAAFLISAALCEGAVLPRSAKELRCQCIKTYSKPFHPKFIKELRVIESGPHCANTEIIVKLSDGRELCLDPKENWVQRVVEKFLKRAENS

[7] = target: T2, Interleukin-8; assay: Dose Response confirmation of uHTS small molecule hits for cystic fibrosis induced NFkb Inhibitors in a PAF-induced IL8 counterscreen.; conditions: read-out: IC50_Mean
[8] = target: T3, ATP-dependent translocase ABCB1 (Homo sapiens, UniProt P08183); assay: ABCG2 efflux pump inhibitor potency, dose response, Ig-MXP3 cells, JC-1, flow cytometry, set 2 (AID 504566); conditions: read-out: EC50_MICROM_;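 also: flow cytometry median green fluorescence of retained JC-1 dye; potency of efflux pump inhibition measured as rising substrate retention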
T3 sequence (P08183 whole entry): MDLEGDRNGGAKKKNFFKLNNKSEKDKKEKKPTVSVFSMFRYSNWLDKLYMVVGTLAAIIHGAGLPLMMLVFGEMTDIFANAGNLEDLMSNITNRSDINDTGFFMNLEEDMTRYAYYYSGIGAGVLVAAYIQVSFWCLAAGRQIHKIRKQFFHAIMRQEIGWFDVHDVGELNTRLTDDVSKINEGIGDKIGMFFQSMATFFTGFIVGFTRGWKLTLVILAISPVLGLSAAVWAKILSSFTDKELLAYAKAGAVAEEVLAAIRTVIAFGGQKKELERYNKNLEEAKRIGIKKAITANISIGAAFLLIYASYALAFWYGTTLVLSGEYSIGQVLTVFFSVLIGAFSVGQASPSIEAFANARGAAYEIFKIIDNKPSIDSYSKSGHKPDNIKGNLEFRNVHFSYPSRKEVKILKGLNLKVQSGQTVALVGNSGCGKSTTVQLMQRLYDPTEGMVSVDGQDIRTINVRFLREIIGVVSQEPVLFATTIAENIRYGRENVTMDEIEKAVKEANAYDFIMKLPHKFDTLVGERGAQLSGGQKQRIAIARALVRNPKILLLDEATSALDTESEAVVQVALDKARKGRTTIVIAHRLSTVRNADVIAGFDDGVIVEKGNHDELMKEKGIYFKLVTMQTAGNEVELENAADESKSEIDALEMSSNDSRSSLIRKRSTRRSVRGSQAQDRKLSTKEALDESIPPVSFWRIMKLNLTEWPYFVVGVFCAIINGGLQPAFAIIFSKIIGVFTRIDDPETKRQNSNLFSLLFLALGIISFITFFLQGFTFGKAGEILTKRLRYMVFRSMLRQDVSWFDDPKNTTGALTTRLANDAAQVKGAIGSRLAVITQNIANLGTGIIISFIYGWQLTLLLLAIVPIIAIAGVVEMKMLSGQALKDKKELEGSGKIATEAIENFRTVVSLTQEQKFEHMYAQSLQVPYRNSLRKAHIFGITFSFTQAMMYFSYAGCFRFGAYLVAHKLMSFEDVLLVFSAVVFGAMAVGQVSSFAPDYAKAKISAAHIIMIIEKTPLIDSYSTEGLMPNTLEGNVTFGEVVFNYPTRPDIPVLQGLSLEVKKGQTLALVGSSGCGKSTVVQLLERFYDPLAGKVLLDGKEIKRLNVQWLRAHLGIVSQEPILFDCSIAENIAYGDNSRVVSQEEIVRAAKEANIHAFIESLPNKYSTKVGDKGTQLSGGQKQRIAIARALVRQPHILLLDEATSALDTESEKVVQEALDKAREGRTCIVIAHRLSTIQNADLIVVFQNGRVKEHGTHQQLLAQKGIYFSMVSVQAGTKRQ

[9] = target: T3, ATP-dependent translocase ABCB1; assay: ABCB1 efflux inhibitor potency, dose response, Jurkat-DNR cells, JC-1, flow cytometry, set 2 (AID 504569); conditions: read-out: EC50_MICROM_;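 also: potency of pump inhibitors that raise cellular JC-1 green fluorescence up to the nicardipine level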

Benomyl/methotrexate resistance protein, sequence (P28873 whole entry): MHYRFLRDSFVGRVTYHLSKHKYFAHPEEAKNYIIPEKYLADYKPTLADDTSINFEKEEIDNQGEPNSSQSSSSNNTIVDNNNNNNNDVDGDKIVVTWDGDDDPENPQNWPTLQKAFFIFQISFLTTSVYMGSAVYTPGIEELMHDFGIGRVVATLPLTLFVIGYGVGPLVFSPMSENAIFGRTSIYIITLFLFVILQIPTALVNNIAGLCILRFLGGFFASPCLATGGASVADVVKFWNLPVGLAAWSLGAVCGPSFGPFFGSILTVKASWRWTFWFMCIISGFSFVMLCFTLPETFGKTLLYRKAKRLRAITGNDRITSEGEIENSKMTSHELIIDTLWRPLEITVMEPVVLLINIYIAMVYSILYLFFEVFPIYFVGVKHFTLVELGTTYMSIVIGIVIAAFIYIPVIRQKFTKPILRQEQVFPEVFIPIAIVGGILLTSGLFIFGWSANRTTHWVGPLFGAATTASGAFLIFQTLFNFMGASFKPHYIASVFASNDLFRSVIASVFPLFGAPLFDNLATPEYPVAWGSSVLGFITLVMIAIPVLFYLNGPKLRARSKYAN

Structure (SMILES): COc1cc(OC)cc(-c2sc3ccc(OC)cc3c2-c2ccc(OCCN3CCCCC3)cc2)c1
EC50 [1]: 10.6 µM (active) | EC50 [2]: 10.7 µM (active) | EC50 [3]: 7.51 µM (active)

IC50 [4]: 20.4 µM (inactive) | IC50 [5]: 13.5 µM (active)
Structure (SMILES): COCCNc1nc(NCc2cnc(C)cn2)c2sccc2n1

IC50 [6]: 45.1 µM (inactive) | IC50 [7]: 25.5 µM (inactive)
Structure (SMILES): C=Cc1ccc(CC2(C)C(=O)Nc3ccc(-c4cccnc4)cc32)cc1 (centres undefined)

EC50 [8]: 0.95 µM (active) | EC50 [9]: 2.41 µM (active)
Structure (SMILES): Cc1ccc(-c2cc3nc(-c4ccccc4)cc(N4CCN(C(=O)c5ccco5)CC4)n3n2)cc1
